Measurements reported in article PMC11765572 (International Journal of Molecular Sciences, 2025).
Read-outs that look alike come from different tables or passages of the source.

Legend:
SARS-CoV-2 M^pro = target: T1, SARS-CoV-2 M^pro (Severe acute respiratory syndrome coronavirus 2, UniProt P0DTD1); test: biochemical; conditions: FRET; for IC50: substrate Dabcyl-[…]-Edans, mean ± SD of three independent measurements; for inhibition at 1 µM: single concentration of 1 μM, read-out: inhibition rate
T1 construct: main protease (M^pro, also known as Nsp5 and 3C-like protease); purchased Beyotime P0312S

in vitro = conditions: African green monkey
[1] = system: SARS-CoV-2 (BetaCov/Belgium/GHB-03021/2020 B.1 lineage A); test: microbe, parasite or virus in culture; conditions: Severe acute respiratory syndrome coronavirus 2, 96 h, mean ± SD of two independent replicates
VeroE6-eGFP cells = conditions: from a previous report, measured under identical conditions; cited from earlier work
[2] = system: SARS-CoV-2 (BetaCov/Belgium/GHB-03021/2020 B.1 lineage A); conditions: VeroE6-eGFP cells; from a previous report, measured under identical conditions; cited from earlier work
SARS-CoV-2 delta strains = system: SARS-CoV-2 delta strains; parameters: method as in PMID 39072488; conditions: delta strain, Vero E6 cells, viral copy numbers in supernatant by qRT-PCR; cited from earlier work
[3] = system: SARS-CoV-2 (BetaCov/Belgium/GHB-03021/2020 B.1 lineage A); conditions: […]; mean ± SD of two independent replicates

| Structure (SMILES) | IC50 (SARS-CoV-2 M^pro) [nM] | inhibition at 1 µM (SARS-CoV-2 M^pro) [%] | CC50 at 5 days (in vitro) [nM] | EC50 [1] [nM] | CC50 (VeroE6-eGFP cells) [nM] | EC50 [2] [nM] | EC50 (SARS-CoV-2 delta strains) [nM] | EC50 [3] |
| --- | --- | --- | --- | --- | --- | --- | --- | --- |
| CNC(=O)c1cc(Br)cc([N+](=O)[O-])c1N[C@@H]1CCCC[C@@H]1NC(=O)c1cccnc1 [Compound A5, N-((1S,2R)-2-((4-bromo-2-(methylcarbamoyl)-6-nitrophenyl)amino)cyclohexyl)nicotinamide] | 1050 ± 67 | 53.7 | > 100000 | 2010 to 6050 | – | – | – | – |
| CC(C)(C)[C@H](NC(=O)C(F)(F)F)C(=O)N1C[C@H]2[C@@H]([C@H]1C(=O)N[C@H](C#N)C[C@@H]1CCNC1=O)C2(C)C [Nirmatrelvir] | – | – | – | – | > 100000 | 123 ± 34 | – | – |
| CNC(=O)c1cc(Br)cc([N+](=O)[O-])c1N[C@@H]1CCCC[C@@H]1NC(=O)c1cc(=O)[nH]c2ccccc12 [Compound A9, N-((1S,2R)-2-((4-bromo-2-(methylcarbamoyl)-6-nitrophenyl)amino)cyclohexyl)-2-oxo-1,2-dihydroquinoline-4-carboxamide] | 154 ± 6 | 92 | > 100000 | 180 ± 20 | – | – | 849 | micromolar or submicromolar range |
| CNC(=O)c1cc(Br)cc([N+](=O)[O-])c1N[C@@H]1CCCC[C@@H]1NC(=O)c1cncc(O)c1 [Compound A6, N-((1S,2R)-2-((4-bromo-2-(methylcarbamoyl)-6-nitrophenyl)amino)cyclohexyl)-5-hydroxynicotinamide] | 1080 ± 23 | 55.5 | > 100000 | – | – | – | – | – |
